Assay results as given in patent US20220118117A1, “MODULATORS OF METABOTROPIC GLUTAMATE RECEPTOR 4” (The General Hospital Corporation, priority 2019, published 2022).
Like-named read-outs stand apart in the source and are kept apart here.

Experiments:
[1] = tested on: other mGlu receptors (mGluR1, mGluR5, mGluR2, mGluR3, mGluR6, mGluR8); assay: mGluR subtype selectivity (Ca2+ mobilization and cAMP assays); format: cell-based; conditions: Gq coupled: Ca2+ mobilization; Gi/o coupled: cAMP assay
Procedure: Ca^2+ mobilization assay. The Gq coupled receptors (mGluR1 and mGluR5) were tested using Ca^2+ mobilization assay. mGluR1 stable cell lines were plated into poly-L-lysine (PLL) coated 384-well black clear bottom cell culture plates with complete Basal Medium Eagle (BME) buffer, which was composed of 10% dialyzed FBS, penicillin G (100 units/mL), streptomycin (100 μg/mL) with Tetracycline (1 μg/mL) at density of 20,000 cells in 40 μl per well for overnight. […] Once loaded in FLIPR (Molecular Devices), basal fluorescence was measured for 10 s, then 10 μL of test or reference compounds were added, followed by continued fluorescence measurement for an additional 120 s. […]
cAMP assay. […] Luminescence was counted in a Trilux luminescence counter. Data were analyzed with Prizm 5.0 (GraphPad software).
The selectivity of 15 was also analyzed among the various mGluR subtypes, in which the Gq coupled receptors (mGluR1 and mGluR5) were tested using Ca^2+ mobilization assay and the Gi/o coupled receptors (mGluR2, mGluR3, mGluR4, mGluR6 and mGluR8) using the cAMP assay.

[2] = solution stability; format: physicochemical
Procedure: Three pH values, 5, 7.4 and 9.4 were selected to check the solution stability. Aqueous solutions with different pH values were established using the following buffers: sodium acetate-KCl—HCl buffer (20 mM, pH 5.0), phosphate buffer (20 mM, pH 7.4), and boric acid-KCl—NaOH buffer (20 mM, pH 9.4). 891 μL of each pH buffer was placed in different tubes. 9 μL (1 mM) of the sample stock (4, 13, 15 and Diltiazem) was transferred to a particular buffer tube and mixed just before the time 0 min. The mixture was vortexed and incubated at 37° C. After the incubation at the different time points (0, 15, 30, 60, and 120 min), aliquots of 50 μL samples were quenched with 100 μL of ice-cold acetonitrile with 25 μM internal reference, respectively, and analyzed by HPLC. The percentage of the remaining intact compound was calculated by (peak area at the specific time point)/(peak area at 0 min)×100. Every sample was assayed three times.

[3] = molecular target: mGluR4 (Homo sapiens, UniProt Q14833); assay: GloSensor cAMP biosensor assay, mGluR4 PAM and agonist activity; format: cell-based; design: expressed in transfected cells
Procedure: Cell Culture. HEK-293 cells were maintained with complete Dulbecco's modified Eagle's medium (DMEM), which was composed of 10% fetal bovine serum (FBS), 2 mM L-glutamine, 100 units/mL penicillin G, 100 μg/mL streptomycin at 37° C. in the presence of 5% CO2. HEK-293 stable cell lines with tetracycline inducible expression of mGluR1, mGluR2, mGluR4, mGluR6 or mGluR8 were maintained with complete DMEM with Hygromycin B (100 μg/mL), Blasticidin (15 μg/mL) at 37° C. in the presence of 5% CO2.
cAMP assay. The Gi/o coupled receptors (mGluR2, mGluR3, mGluR4, mGluR6 and mGluR8) were tested using cAMP assay. Promega's split luciferase based GloSensor cAMP biosensor technology was used in determining Gi-GPCR mediated cAMP production in live cells. On the cells stably expressing mGluR2, mGluR3, mGluR4, mGluR6 or mGluR8, GloSensor cAMP DNA construct was transfected overnight. Cells were seeded into PLL coated 384-well white clear bottom cell culture plates with complete BME Buffer with Tetracycline (1 μg/mL) at a density of 20,000 cells for another 24 h. The cell medium was removed and then 20 μL of buffer was loaded. […] Luminescence was counted in a Trilux luminescence counter. Data were analyzed with Prizm 5.0 (GraphPad software).
Secondary assays—Dose-response assays. […] For each compound, the results from four replicates were averaged and then either EC50 or IC50 values were calculated by non-linear regression using the 4-parameter logistic equation. […]
In sum, the mGluR4 PAM activity was determined using Promega's split luciferase based GloSensor cAMP biosensor assay (refs. 41-42). mGluR4 is coupling to Gαi protein to inhibit adenylate cyclase, which converts ATP to cAMP, which plays an important role in many signal transduction pathways. […] The mGluR4 PAM activity of 15 was evaluated in presence of EC20 concentration of agonist (1 μM L-SOP) by measuring changes in intracellular cAMP concentration.

Sequence of mGluR4 (Q14833 33-912): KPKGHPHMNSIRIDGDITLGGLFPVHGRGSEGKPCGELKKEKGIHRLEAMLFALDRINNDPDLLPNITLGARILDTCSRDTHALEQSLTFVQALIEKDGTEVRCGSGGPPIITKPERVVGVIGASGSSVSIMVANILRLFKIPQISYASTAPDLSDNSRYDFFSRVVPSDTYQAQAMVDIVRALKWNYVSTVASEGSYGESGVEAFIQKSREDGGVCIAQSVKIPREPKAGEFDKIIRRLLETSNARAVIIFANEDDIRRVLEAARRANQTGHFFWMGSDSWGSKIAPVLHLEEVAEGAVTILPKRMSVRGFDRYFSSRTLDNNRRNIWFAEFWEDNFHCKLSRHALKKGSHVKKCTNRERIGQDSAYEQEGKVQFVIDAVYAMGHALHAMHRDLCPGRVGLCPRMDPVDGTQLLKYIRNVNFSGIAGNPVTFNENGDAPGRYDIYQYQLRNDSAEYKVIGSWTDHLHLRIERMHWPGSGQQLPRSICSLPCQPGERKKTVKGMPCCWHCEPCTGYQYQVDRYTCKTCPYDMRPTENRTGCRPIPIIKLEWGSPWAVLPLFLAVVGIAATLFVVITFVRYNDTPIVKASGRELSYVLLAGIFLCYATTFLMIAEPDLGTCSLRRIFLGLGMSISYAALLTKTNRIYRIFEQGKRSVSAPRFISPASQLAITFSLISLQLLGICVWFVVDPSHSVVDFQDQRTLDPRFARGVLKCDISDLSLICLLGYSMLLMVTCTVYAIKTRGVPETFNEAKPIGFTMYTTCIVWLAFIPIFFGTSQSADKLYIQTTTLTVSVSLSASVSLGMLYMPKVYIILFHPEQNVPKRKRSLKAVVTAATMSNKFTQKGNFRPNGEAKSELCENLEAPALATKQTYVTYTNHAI

The solution stability, The intact ± SEM at 120 min (%) ([2]; pH = 5.0, 37° C.): 87.1 ± 0.9% | The solution stability, The intact ± SEM at 120 min (%) ([2]; pH = 7.4, 37° C.): 88.3 ± 1.9% | The solution stability, The intact ± SEM at 120 min (%) ([2]; pH = 9.4, 37° C.): 84.3 ± 1.8% | EC50 ([3]; agonist mode, cAMP assay, read-out: EC50, mGluR4 agonist activity): 2.75 µM | EC50 ([3]; in presence of EC20 concentration of agonist (1 μM L-SOP), read-out: EC50, mGluR4 PAM activity): 0.324 µM
SMILES: [2H]C([2H])(F)Sc1cc(NC(=O)c2ccccn2)ccc1Cl [Compound 15, N-(4-Chloro-3-((fluoromethyl-d2)thio)phenyl)picolinamide]
selectivity among mGluR subtypes [1]: has selectivity against other mGlu receptors
